# Source: patent US7173019B2, “Linked cyclitols and their polysulfated derivatives” (The Australian National University, priority 2001, dated 2007)
# Where two headings read alike, the source gives them in different places.
# Columns and labels:
# [1] = target: T1, human platelet heparanase (Homo sapiens, UniProt Q9Y251); assay: Heparanase inhibition, 3H-radiolabelled HS cleavage assay; format: biochemical; conditions: for Relative inhibition (%): based on a comparison with heparin with 100% inhibition at 30 μg/ml; for EC50: heparanase inhibition
# T1 construct: 10 ng of purified human platelet heparanase; from tissue; host or cells: human platelets
# T1 sequence (Q9Y251 158-543 limits assumed): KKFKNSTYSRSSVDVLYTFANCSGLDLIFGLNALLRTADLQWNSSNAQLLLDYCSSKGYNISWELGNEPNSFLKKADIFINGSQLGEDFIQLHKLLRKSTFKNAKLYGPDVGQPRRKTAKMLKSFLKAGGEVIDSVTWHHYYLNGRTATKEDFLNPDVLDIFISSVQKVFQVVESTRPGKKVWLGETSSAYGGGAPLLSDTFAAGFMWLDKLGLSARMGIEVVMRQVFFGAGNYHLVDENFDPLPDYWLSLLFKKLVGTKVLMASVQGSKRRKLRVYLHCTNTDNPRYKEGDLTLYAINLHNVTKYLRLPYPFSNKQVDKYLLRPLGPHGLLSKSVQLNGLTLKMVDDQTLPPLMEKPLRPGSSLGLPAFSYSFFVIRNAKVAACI
# T1 sequence (Q9Y251 36-109 limits assumed): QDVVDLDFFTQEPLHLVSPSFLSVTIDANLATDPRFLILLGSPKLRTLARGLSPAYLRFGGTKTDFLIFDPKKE
# Protocol: Briefly, to an incubation mixture of […] containing ^3H-radiolabelled porcine mucosal HS […], 50 mM-sodium acetate buffer, pH 5.0, […] bovine serum albumin and the inhibitor to be tested, was added 10 ng of purified human platelet heparanase and the mixture incubated for 30 min. The reaction was terminated by freezing the assay tubes. The substrate was separated from the cleavage products on minicolumns of sepharose-bound histidine-rich glycoprotein (Freeman, C., and Parish, C. R. [1997], supra).
# Inhibitory activity is based on a comparison with heparin with 100% inhibition at 30 μg/ml. The compounds were also tested at the same purity as in Example 15.
# [2] = target: T2, human leukocyte Cathepsin G (Homo sapiens, UniProt P08311); assay: Cathepsin G inhibition, fluorogenic substrate, 96 well assay; format: biochemical; conditions: human leukocyte cathepsin G 100 ng, 37° C., 60 min, pH 6.6
# T2 construct: human leukocyte Cathepsin G (100 ng protein); from tissue; host or cells: human leukocytes
# T2 sequence (P08311 21-244): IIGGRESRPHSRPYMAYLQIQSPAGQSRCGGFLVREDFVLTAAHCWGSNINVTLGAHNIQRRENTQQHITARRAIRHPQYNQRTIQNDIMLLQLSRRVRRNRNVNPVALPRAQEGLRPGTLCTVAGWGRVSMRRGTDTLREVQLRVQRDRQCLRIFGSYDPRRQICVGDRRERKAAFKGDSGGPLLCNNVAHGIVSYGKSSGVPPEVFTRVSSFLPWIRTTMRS
# Protocol: Cathepsin G activity was determined using a 96 well assay format in PVC microtitre U-bottom plates with activity determination by a fluorescence plate reader. Briefly, within a total incubation volume of 40 μl, human leukocyte Cathepsin G (100 ng protein) was added to a mixture of inhibitor and the fluorogenic substrate MeOSuc-ala-ala-pro-phe-AMAC in 50 mM-NaOAc buffer, pH 6.6 containing 50 mM NaCl and 0.1% (v/v) Brij 35. The mixture was incubated at 37° C. for 60 min, the reaction stopped by the addition of 40 μl of 250 mM acetic acid and the fluorescence determined with excitation at 360 nm and emitted light measured at 460 nm.
# In this table, the linked cyclitol compound identifications are the same as those given in Section A above where the structures of the compounds are also given. With regard to the purity rating, a greater number of asterisks signifies a greater degree of purity with five asterisks signifying an essentially pure compound. The cathepsin G inhibition data are the concentrations of compounds required to inhibit the enzyme by 50%.
# [3] = test system: rat aorta fragments; assay: In vitro angiogenesis inhibition assay; format: cell-based; conditions: control 90
# Protocol: The ability of linked cyclitol compounds to inhibit angiogenesis in vitro was conducted using the assay essentially as described in the present applicant's International Patent Application No. PCT/AU95/00105 (Publication No. WO 95/23968), the entire content of which is incorporated herein by cross reference. The only changes to the procedure described in PCT/AU95/00105 were that the assays were conducted using rat aorta fragments rather than human placental vessel fragments.
# All potential inhibitors were tested at 100 μg/ml with PI-88 also being tested at 10 μg/ml. The tabulated data represent means of 4 culture wells for each experiment. Significant inhibition of angiogenesis is indicated with a single asterisk while double asterisks denote highly significant inhibition.
# The compounds were also tested at the same purity as in Example 15 save that the second entries for 4b and 4j relate to data obtained with higher purity compounds than the compounds used for the first data entries of each.
# [4] = target: T3, IL-8 (Homo sapiens, UniProt P10145); assay: Biacore biosensor: inhibition of IL-8 binding to immobilised heparin and heparan sulfate; conditions: inhibitor 1.0 μM, IL-8 0.068 μM; for Inhibition of binding of IL-8 (HS): immobilised heparan sulfate; for Inhibition of binding of IL-8 (Hep): immobilised heparin
# T3 sequence (P10145 21-99): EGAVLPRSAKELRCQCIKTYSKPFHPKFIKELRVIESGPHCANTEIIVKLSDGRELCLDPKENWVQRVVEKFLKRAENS
# Protocol: (§1) Assays were performed using a Biacore™ 2000 optical biosensor obtained from Biacore AB, Uppsala, Sweden. The biosensor was operated in accordance with the manufacturer's instructions. Briefly, neutravidin was covalently coupled to the surface of CM5 chips of the biosensor and then either biotinylated heparin (1 μg/ml) or biotinylated heparan sulfate ([…]) bound to the immobilised neutravidin. Mixtures of a test compound and a growth factor or other effector compound were preincubated for 2 to 5 minutes and the mixtures then added to individual biosensor cuvettes. Binding of growth factor or effector compound to the heparin or heparan sulfate was then monitored for approximately 5 minutes with the biosensor.
# [5] = target: bFGF (Homo sapiens, UniProt P09038); assay: Biacore biosensor: inhibition of bFGF binding to immobilised heparin and heparan sulfate; conditions: for Inhibition of binding of bFGF (HS) / Inhibition of binding of bFGF (Hep): inhibitor 0.034 μM, bFGF 0.034 μM
# Protocol: as §1
# (§2) The tabulated values are the IC50 in μM or % inhibition of binding of the growth factor to the immobilised heparan sulfate (HS) or heparin.
# [6] = target: T4, VEGF (Homo sapiens, UniProt P15692); assay: Biacore biosensor: inhibition of VEGF binding to immobilised heparin and heparan sulfate; conditions: inhibitor 0.034 μM, VEGF 0.025 μM; for Inhibition of binding of VEGF (HS): immobilised heparan sulfate; for Inhibition of binding of VEGF (Hep): immobilised heparin
# T4 sequence (P15692 27-191 isoform P15692-4): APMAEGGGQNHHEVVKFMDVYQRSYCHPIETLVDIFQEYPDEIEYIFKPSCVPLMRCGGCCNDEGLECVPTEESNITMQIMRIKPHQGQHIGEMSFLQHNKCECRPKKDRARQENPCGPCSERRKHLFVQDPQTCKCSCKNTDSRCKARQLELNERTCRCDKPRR
# Protocol: as §1, §2
# [7] = target: aFGF (Homo sapiens, UniProt P05230); assay: Biacore biosensor: inhibition of aFGF binding to immobilised heparin and heparan sulfate; conditions: inhibitor 0.034 μM, aFGF 0.025 μM; for Inhibition of binding of aFGF (HS): immobilised heparan sulfate; for Inhibition of binding of aFGF (Hep): immobilised heparin
# Protocol: as §1, §2
# [8] = inhibitor 100 μg/ml, means of 4 culture wells per experiment, * significant, ** highly significant inhibition
# [9] = immobilised heparan sulfate, read-out: IC50, inhibition of bFGF binding (HS)
# [10] = immobilised heparin, read-out: IC50, inhibition of bFGF binding (Hep)
# aFGF, sequence (P05230 whole entry, species assumed): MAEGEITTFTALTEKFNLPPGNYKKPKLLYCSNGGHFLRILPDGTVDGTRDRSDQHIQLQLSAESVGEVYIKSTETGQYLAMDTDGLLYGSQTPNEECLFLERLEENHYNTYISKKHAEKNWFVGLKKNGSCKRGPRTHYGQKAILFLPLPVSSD
# bFGF, sequence (P09038 134-288 limits assumed, species assumed): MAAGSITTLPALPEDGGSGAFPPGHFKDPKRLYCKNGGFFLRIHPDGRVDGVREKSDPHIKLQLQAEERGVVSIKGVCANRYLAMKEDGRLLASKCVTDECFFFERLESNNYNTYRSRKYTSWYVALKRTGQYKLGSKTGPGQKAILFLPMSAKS
Relative inhibition (%) [1] [%],EC50 [1] [µg/mL],Amount for 50% inhibition [2] [µg/mL],Inhibition of binding of IL-8 (HS) [4],Inhibition of binding of IL-8 (Hep) [4],Inhibition of binding of bFGF (HS) ([5]; immobilised heparan sulfate),Inhibition of binding of bFGF (Hep) ([5]; immobilised heparin),Inhibition of binding of VEGF (HS) [6],Inhibition of binding of VEGF (Hep) [6],Inhibition of binding of aFGF (HS) [7],Inhibition of binding of aFGF (Hep) [7],"IC50 [5, 9] [nM]","IC50 [5, 10] [nM]",Inhibition (%) at 10 μg/ml ([1]; 10 μg/ml) [%],Compound,"% Growth [3, 8]","% Growth ([3]; inhibitor 100 μg/ml, second entry, higher purity compound, * significant inhibition)","% Growth ([3]; inhibitor 10 μg/ml, * significant inhibition)"
45,40,0.22,48% (HS),55% (Hep),48% (HS),52% (Hep),32% (HS),45% (Hep),47% (HS),44% (Hep),–,–,–,O=S(=O)(O)OC1C=CC(N(CCCCCCN(C2C=CC(OS(=O)(=O)O)C(OS(=O)(=O)O)C2OS(=O)(=O)O)C2C=CC(OS(=O)(=O)O)C(OS(=O)(=O)O)C2OS(=O)(=O)O)C2C=CC(OS(=O)(=O)O)C(OS(=O)(=O)O)C2OS(=O)(=O)O)C(OS(=O)(=O)O)C1OS(=O)(=O)O (stereo not shown) [Compound 4b],70%,65* %,–
75,15,0.43,50% (HS),57% (Hep),68% (HS),52% (Hep),40% (HS),44% (Hep),65% (HS),65% (Hep),23,32,–,O=S(=O)(O)OC1C=CC(N(Cc2cccc(CN(C3C=CC(OS(=O)(=O)O)C(OS(=O)(=O)O)C3OS(=O)(=O)O)C3C=CC(OS(=O)(=O)O)C(OS(=O)(=O)O)C3OS(=O)(=O)O)c2)C2C=CC(OS(=O)(=O)O)C(OS(=O)(=O)O)C2OS(=O)(=O)O)C(OS(=O)(=O)O)C1OS(=O)(=O)O (stereo not shown) [Compound 4d],67%,–,–
70,9,0.30,65% (HS),62% (Hep),61% (HS),49% (Hep),51% (HS),63% (Hep),63% (HS),66% (Hep),–,–,–,O=S(=O)(O)OC1C=CC(N(Cc2ccc(CN(C3C=CC(OS(=O)(=O)O)C(OS(=O)(=O)O)C3OS(=O)(=O)O)C3C=CC(OS(=O)(=O)O)C(OS(=O)(=O)O)C3OS(=O)(=O)O)cc2)C2C=CC(OS(=O)(=O)O)C(OS(=O)(=O)O)C2OS(=O)(=O)O)C(OS(=O)(=O)O)C1OS(=O)(=O)O (stereo not shown) [Compound 4e],55* %,–,–
–,–,–,–,–,–,–,–,–,–,–,–,–,–,O=S(=O)(O)OC1C(OS(=O)(=O)O)C(OS(=O)(=O)O)C(N(Cc2ccc(CN(C3C(OS(=O)(=O)O)C(OS(=O)(=O)O)C(OS(=O)(=O)O)C(OS(=O)(=O)O)C3OS(=O)(=O)O)C3C(OS(=O)(=O)O)C(OS(=O)(=O)O)C(OS(=O)(=O)O)C(OS(=O)(=O)O)C3OS(=O)(=O)O)cc2)C2C(OS(=O)(=O)O)C(OS(=O)(=O)O)C(OS(=O)(=O)O)C(OS(=O)(=O)O)C2OS(=O)(=O)O)C(OS(=O)(=O)O)C1OS(=O)(=O)O (stereo not shown) [Compound 5e],60* %,–,–
85,12,0.53,42% (HS),52% (Hep),43% (HS),33% (Hep),11% (HS),13% (Hep),54% (HS),67% (Hep),–,–,–,O=S(=O)(O)OC(CN([C@H]1[C@H](OS(=O)(=O)O)[C@H](OS(=O)(=O)O)[C@@H](OS(=O)(=O)O)[C@@H](OS(=O)(=O)O)[C@@H]1OS(=O)(=O)O)[C@H]1[C@H](OS(=O)(=O)O)[C@H](OS(=O)(=O)O)[C@@H](OS(=O)(=O)O)[C@@H](OS(=O)(=O)O)[C@@H]1OS(=O)(=O)O)CN([C@H]1[C@H](OS(=O)(=O)O)[C@H](OS(=O)(=O)O)[C@@H](OS(=O)(=O)O)[C@@H](OS(=O)(=O)O)[C@@H]1OS(=O)(=O)O)[C@H]1[C@H](OS(=O)(=O)O)[C@H](OS(=O)(=O)O)[C@@H](OS(=O)(=O)O)[C@@H](OS(=O)(=O)O)[C@@H]1OS(=O)(=O)O [Compound 5l],80%,–,–
100,2.9,–,0%,10%,56% (HS),50% (Hep),65% (HS),29% (Hep),33% (HS),96% (Hep),25,34,90,"phosphomannopentaose sulfate [PI-88, reference compound]",45** %,–,64* %
